The nature of series [1]: Toxicity against mouse Hepa-1c1c7 cells assessed as inhibition of cell proliferation. In kind it is cell-based.
Series [2] in a line: Chemopreventive index, ratio of IC50 for mouse Hepa-1c1c7 cells to drug concentration required to double induction of NQO1 in mouse Hepa-1c1c7 cells.
Series [3] deals with NAD(P)H dehydrogenase [quinone] 1 (Mus musculus) (UniProt Q64669). As to the kind of experiment: Induction of NQO1 in mouse Hepa-1c1c7 cells assessed as drug concentration required to double induction by quinone reductase assay. In kind it is cell-based.
Chain of NAD(P)H dehydrogenase [quinone] 1 (Mus musculus) (Q64669 whole entry): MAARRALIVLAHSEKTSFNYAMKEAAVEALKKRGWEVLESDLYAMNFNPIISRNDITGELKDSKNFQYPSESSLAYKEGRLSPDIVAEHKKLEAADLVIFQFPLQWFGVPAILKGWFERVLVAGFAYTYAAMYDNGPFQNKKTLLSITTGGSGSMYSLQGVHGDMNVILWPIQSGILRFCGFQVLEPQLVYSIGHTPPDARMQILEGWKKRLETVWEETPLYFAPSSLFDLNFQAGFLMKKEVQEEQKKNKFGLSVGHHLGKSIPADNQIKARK

Broadly, the IC50 is the concentration that inhibits the measured activity by half. `C=CCCCCC/C=C\[C@@H](O)C#CC#C[C@@H](O)[C@H](C)O`: the IC50 in series [1] is more than 50 µM. The Ratio in series [2] was more than 6.1. Besides, the CD in series [3] was determined as 8.2 µM.
The corresponding values for `C[S+]([O-])CCCCN=C=S` (stereo not drawn) [SULFORAPHANE] are 11 µM, 27 and 0.4 µM.
With `CCCCC[C@H](O)C#CC#C[C@@H](O)CCCCC`, the IC50 in series [1] was 47 µM. Moreover, the Ratio in series [2] is on record as 18. Also, the CD in series [3] turned out to be 2.6 µM.
The corresponding values for `CCCCCC(O)C#CC#CC(O)CCCCC` (mixture of isomers) are more than 50 µM, more than 16 and 3.1 µM.
`CCCCCC(O)C#CC#CC(O)CCC` (stereo not drawn): the IC50 in series [1] turned out to be 19 µM. Besides, the Ratio in series [2] is listed as 24. Moreover, in series [3], the CD was 0.8 µM.
The corresponding values for `CCCCCCCCCC(O)C#CC#CC(O)CCCCC` (stereo not drawn) are 12 µM, 4.6 and 2.6 µM.
The corresponding values for `CCCCCC(O)C#CC#CC(O)C1CCCCC1` (mixture of isomers) are more than 50 µM, more than 16 and 3.2 µM.
The corresponding values for `CCCCCC(O)C#CC#CCO` (racemic) are more than 50 µM, more than 11 and 4.7 µM.
In the case of `CCCCC[C@@H](O)C#CC#CCO`, the IC50 in series [1] was more than 100 µM. The Ratio in series [2] is more than 43. Besides, the CD in series [3] was found to be 2.3 µM.
The matching figures for `CCCCC[C@H](O)C#CC#C[C@H](O)CCCCC`: 68 µM, 14 and 4.7 µM.
The matching figures for `CCCCCCCCCC(O)C#CC#CC(O)CCC` (stereo not drawn): 30 µM, 7.2 and 4.2 µM.
The matching figures for `CCCCCCCCCC(O)C#CC#CC(O)C1CCCCC1` (stereo not drawn): 44 µM, 4 and 11 µM.
For the compound `CCCCC[C@H](O)C#CC#CCO`, the IC50 in series [1] was more than 100 µM. In addition, the Ratio in series [2] was more than 31. Also, the CD in series [3] was determined as 3.2 µM.
`CCCCCC(O)C#CC#CC(O)CC(C)C` (stereo not drawn): in series [1], the IC50 was 41 µM. In addition, the Ratio in series [2] turned out to be 32. In series [3], the CD worked out at 1.3 µM.
The matching figures for `CC(C)CC(O)C#CC#CC(O)C1CCCCC1` (stereo not drawn): more than 50 µM, more than 8.9 and 5.6 µM.
The corresponding values for `OC(C#CC#CC(O)C1CCCCC1)C1CCCCC1` (stereo not drawn) are more than 50 µM, more than 6 and 8.4 µM.
The matching figures for `CCCC(O)C#CC#CCO` (stereo not drawn): more than 50 µM, more than 8.3 and 6 µM.
As to `CCCC(O)C#CC#CC(O)C1CCCCC1` (stereo not drawn), in series [1], the IC50 was more than 50 µM. Also, in series [2], the Ratio was more than 8.1. Further, in series [3], the CD was 6.2 µM.
Turning to `CCCCCCCCCC(O)C#CC#CC(O)CC(C)C` (stereo not drawn), the IC50 in series [1] was more than 50 µM. For the same compound, in series [2], the Ratio was more than 5. Also, the CD in series [3] worked out at 10 µM.
The corresponding values for `CCCCC[C@@H](O)C#CC#C[C@H](O)CCCCC` are 12 µM, 20 and 0.6 µM.
The corresponding values for `CCCCCCCCCC(O)C#CC#CC(O)CCCCCCCCC` (stereo not drawn) are 26 µM, 1 and 26 µM.

Values taken from ChEMBL document CHEMBL3608267, “Identification of dialkyl diacetylene diols with potent cancer chemopreventive activity” (Bioorg Med Chem Lett, 2015).
